Measurements published in patent US20130184272A1, “DIABETES THERAPEUTIC AGENT” (TAKEDA PHARMACEUTICAL COMPANY LIMITED, priority 2010, published 2013).

How the values were obtained:
[1] = tested on: succinic acid dehydrogenase activity of mitochondria; assay: Succinic acid dehydrogenase activity in muscle cell; assay type: cell-based, Mouse; details: for succinic acid dehydrogenase activity: two days, control group 100
Method: • (1) In the same manner as in Example 1, C2C12 cells were cultured in a growth medium to not less than 90% confluence. • (2) The medium was exchanged with a differentiation medium, and the cells were cultured until observation of myotube formation under a microscope. • (3) The compounds of Reference Example 1 and Reference Example 7 were added, and the cells were cultured for two days. • (4) ATP content was measured using Cell Titer-Glo™ Luminescence cell viable assay (Promega) and succinic acid dehydrogenase activity of mitochondria was measured using Cell Counting Kit-8 (Dojin). The data of Table 17 show mean±standard deviation at n=3-4 (n is the number of samples).

[2] = tested on: Male C57BL/6J mice on a high-fat diet; assay: Antiobesity, dyslipidemia and diabetes improving effect in mouse fed with high-fat diet; assay type: in vivo; parameters: plasma leptin (mg/dL): unit not given here; details: for epididymal fat mass / gastrocnemius muscle weight (g/100 g body weight) / hepatocyte weight / mesenteric fat mass: Day 38
Method: Male C57BL/6J mice (CLEA Japan, Inc.) were bred from 5-week-old on a high-fat diet (D12451, research diet) while allowing free ingestion of both feed and water to prepare obesity mice. The mice were bred for acclimation for 2 weeks from 21-week-old. The body weight and plasma markers were measured when 23-week-old, the mice were divided into 6 groups (6 per group) such that the values thereof were uniform, and Reference Example 1 (0.01-0.1 mg/kg) or Reference Example 7 (1-3 mg/kg) was orally administered for 5 weeks. After 14 and 28 days, plasma levels of total cholesterol, neutral lipid, glucose, insulin, leptin, adiponectin and glycated hemoglobin were measured. On the last day, the mice were autopsied, and weights of mesenteric fat, epididymal fat, liver and gastrocnemius muscle were measured. The data of Table 18 show mean±standard deviation at n=5-6 (n is the number of samples).

C2C12 cell = assay: Sugar metabolism promoting activity in muscle cell (lactic acid production); assay type: cell-based, Mouse; details: Mus musculus, 48 h; compound 1 μM, 2 days, C2C12 myotubes; without drug = 100%; read-out: lactic acid production promoting action (%)
MyoD = assay: Muscle-related gene expression in myoblast: MyoD; assay type: cell-based, Mouse; details: for MyoD/36B4 expression level: 10 μM, 1 day, relative value

Cc1ncccc1Oc1sc(C(N)=O)c2c1-c1c(cnn1C)CC2 [Ref. Ex. 1, 1-methyl-8-[(2-methylpyridin-3-yl)oxy]-4,5-dihydro-1H-thieno[3,4-g]indazole-6-carboxamide]
succinic acid dehydrogenase activity (in words) [1]: increased
succinic acid dehydrogenase activity ([1]; compound 0.01 nM): 98 ± 10
succinic acid dehydrogenase activity ([1]; compound 0.1 nM): 113 ± 5
succinic acid dehydrogenase activity ([1]; compound 1 nM): 124 ± 3
average amount of ingestion ([2]; 0.01 mg/kg oral): 3.7 ± 0.2 g/day
body weight (g) change ([2]; 0.01 mg/kg oral): 3.0 ± 1.2 g
body weight ([2]; 0.01 mg/kg oral, Day 0): 40.9 ± 2.5 g
glycated hemoglobin (%) ([2]; 0.01 mg/kg oral, Day 0): 4.5 ± 0.2%
plasma adiponectin (μg/dL)) ([2]; 0.01 mg/kg oral, Day 0): 15.9 ± 3.4 µg/dL
plasma glucose ([2]; 0.01 mg/kg oral, Day 0): 178.1 ± 26.5 mg/dL
plasma insulin ([2]; 0.01 mg/kg oral, Day 0): 4.2 ± 2.0 ng/mL
plasma leptin (mg/dL) ([2]; 0.01 mg/kg oral, Day 0): 54.2 ± 21.0
plasma neutral fats ([2]; 0.01 mg/kg oral, Day 0): 73.4 ± 15.1 mg/dL
plasma total cholesterol ([2]; 0.01 mg/kg oral, Day 0): 222.1 ± 45.4 mg/dL
glycated hemoglobin (%) ([2]; 0.01 mg/kg oral, Day 14): 4.0 ± 0.3 %
plasma adiponectin (μg/dL)) ([2]; 0.01 mg/kg oral, Day 14): 15.5 ± 2.5 µg/dL
plasma glucose ([2]; 0.01 mg/kg oral, Day 14): 156.0 ± 23.4 mg/dL
plasma insulin ([2]; 0.01 mg/kg oral, Day 14): 6.2 ± 5.8 ng/mL
plasma leptin (mg/dL) ([2]; 0.01 mg/kg oral, Day 14): 71.2 ± 22.0
plasma neutral fats ([2]; 0.01 mg/kg oral, Day 14): 59.4 ± 18.5 mg/dL
plasma total cholesterol ([2]; 0.01 mg/kg oral, Day 14): 182.6 ± 19.5 mg/dL
glycated hemoglobin (%) ([2]; 0.01 mg/kg oral, Day 28): 3.8 ± 0.4%
plasma adiponectin (μg/dL)) ([2]; 0.01 mg/kg oral, Day 28): 14.7 ± 2.9 µg/dL
plasma glucose ([2]; 0.01 mg/kg oral, Day 28): 162.9 ± 24.4 mg/dL
plasma insulin ([2]; 0.01 mg/kg oral, Day 28): 5.4 ± 3.9 ng/mL
plasma leptin (mg/dL) ([2]; 0.01 mg/kg oral, Day 28): 81.8 ± 23.9
plasma neutral fats ([2]; 0.01 mg/kg oral, Day 28): 45.5 ± 14.1 mg/dL
plasma total cholesterol ([2]; 0.01 mg/kg oral, Day 28): 187.2 ± 15.9 mg/dL
body weight ([2]; 0.01 mg/kg oral, Day 37): 44.9 ± 2.6 g
epididymal fat mass ([2]; 0.01 mg/kg oral): 0.91 ± 0.26 g
gastrocnemius muscle weight (g/100 g body weight) ([2]; 0.01 mg/kg oral): 0.373 ± 0.030 g/100 g body weight
hepatocyte weight ([2]; 0.01 mg/kg oral): 1.81 ± 0.23 g
mesenteric fat mass ([2]; 0.01 mg/kg oral): 0.87 ± 0.17 g
average amount of ingestion ([2]; 0.03 mg/kg oral): 3.2 ± 0.2 g/day
body weight (g) change ([2]; 0.03 mg/kg oral): -0.2 ± 0.9 g
body weight ([2]; 0.03 mg/kg oral, Day 0): 40.9 ± 2.2 g
glycated hemoglobin (%) ([2]; 0.03 mg/kg oral, Day 0): 4.5 ± 0.1%
plasma adiponectin (μg/dL)) ([2]; 0.03 mg/kg oral, Day 0): 18.0 ± 4.0 µg/dL
plasma glucose ([2]; 0.03 mg/kg oral, Day 0): 178.5 ± 27.8 mg/dL
plasma insulin ([2]; 0.03 mg/kg oral, Day 0): 6.0 ± 3.7 ng/mL
plasma leptin (mg/dL) ([2]; 0.03 mg/kg oral, Day 0): 70.3 ± 19.6
plasma neutral fats ([2]; 0.03 mg/kg oral, Day 0): 72.3 ± 34.0 mg/dL
plasma total cholesterol ([2]; 0.03 mg/kg oral, Day 0): 238.2 ± 19.0 mg/dL
glycated hemoglobin (%) ([2]; 0.03 mg/kg oral, Day 14): 4.1 ± 0.1 %
plasma adiponectin (μg/dL)) ([2]; 0.03 mg/kg oral, Day 14): 19.5 ± 3.1 µg/dL
plasma glucose ([2]; 0.03 mg/kg oral, Day 14): 154.9 ± 12.1 mg/dL
plasma insulin ([2]; 0.03 mg/kg oral, Day 14): 3.5 ± 2.1 ng/mL
plasma leptin (mg/dL) ([2]; 0.03 mg/kg oral, Day 14): 54.7 ± 19.0
plasma neutral fats ([2]; 0.03 mg/kg oral, Day 14): 50.9 ± 14.7 mg/dL
plasma total cholesterol ([2]; 0.03 mg/kg oral, Day 14): 165.6 ± 11.3 mg/dL
glycated hemoglobin (%) ([2]; 0.03 mg/kg oral, Day 28): 4.1 ± 0.1%
plasma adiponectin (μg/dL)) ([2]; 0.03 mg/kg oral, Day 28): 16.4 ± 3.8 µg/dL
plasma glucose ([2]; 0.03 mg/kg oral, Day 28): 167.0 ± 20.4 mg/dL
plasma insulin ([2]; 0.03 mg/kg oral, Day 28): 2.7 ± 0.8 ng/mL
plasma leptin (mg/dL) ([2]; 0.03 mg/kg oral, Day 28): 62.4 ± 18.1
plasma neutral fats ([2]; 0.03 mg/kg oral, Day 28): 54.4 ± 19.8 mg/dL
plasma total cholesterol ([2]; 0.03 mg/kg oral, Day 28): 170.3 ± 13.5 mg/dL
body weight ([2]; 0.03 mg/kg oral, Day 37): 41.0 ± 2.3 g
epididymal fat mass ([2]; 0.03 mg/kg oral): 0.72 ± 0.05 g
gastrocnemius muscle weight (g/100 g body weight) ([2]; 0.03 mg/kg oral): 0.407 ± 0.017 g/100 g body weight
hepatocyte weight ([2]; 0.03 mg/kg oral): 1.56 ± 0.11 g
mesenteric fat mass ([2]; 0.03 mg/kg oral): 0.57 ± 0.11 g
average amount of ingestion ([2]; 0.1 mg/kg oral): 2.7 ± 0.3 g/day
body weight (g) change ([2]; 0.1 mg/kg oral): -4.1 ± 0.7 g
body weight ([2]; 0.1 mg/kg oral, Day 0): 38.8 ± 3.5 g
glycated hemoglobin (%) ([2]; 0.1 mg/kg oral, Day 0): 4.5 ± 0.2%
plasma adiponectin (μg/dL)) ([2]; 0.1 mg/kg oral, Day 0): 16.8 ± 5.7 µg/dL
plasma glucose ([2]; 0.1 mg/kg oral, Day 0): 183.9 ± 35.2 mg/dL
plasma insulin ([2]; 0.1 mg/kg oral, Day 0): 4.3 ± 1.8 ng/mL
plasma leptin (mg/dL) ([2]; 0.1 mg/kg oral, Day 0): 55.7 ± 15.4
plasma neutral fats ([2]; 0.1 mg/kg oral, Day 0): 63.2 ± 9.1 mg/dL
plasma total cholesterol ([2]; 0.1 mg/kg oral, Day 0): 218.2 ± 19.0 mg/dL
glycated hemoglobin (%) ([2]; 0.1 mg/kg oral, Day 14): 4.0 ± 0.2 %
plasma adiponectin (μg/dL)) ([2]; 0.1 mg/kg oral, Day 14): 22.8 ± 3.8 µg/dL
plasma glucose ([2]; 0.1 mg/kg oral, Day 14): 159.6 ± 26.7 mg/dL
plasma insulin ([2]; 0.1 mg/kg oral, Day 14): 1.4 ± 0.6 ng/mL
plasma leptin (mg/dL) ([2]; 0.1 mg/kg oral, Day 14): 27.4 ± 19.1
plasma neutral fats ([2]; 0.1 mg/kg oral, Day 14): 25.2 ± 7.6 mg/dL
plasma total cholesterol ([2]; 0.1 mg/kg oral, Day 14): 129.1 ± 15.4 mg/dL
glycated hemoglobin (%) ([2]; 0.1 mg/kg oral, Day 28): 3.8 ± 0.2 %
plasma adiponectin (μg/dL)) ([2]; 0.1 mg/kg oral, Day 28): 19.2 ± 2.9 µg/dL
plasma glucose ([2]; 0.1 mg/kg oral, Day 28): 138.6 ± 17.3 mg/dL
plasma insulin ([2]; 0.1 mg/kg oral, Day 28): 1.4 ± 0.6 ng/mL
plasma leptin (mg/dL) ([2]; 0.1 mg/kg oral, Day 28): 29.2 ± 20.0
plasma neutral fats ([2]; 0.1 mg/kg oral, Day 28): 34.7 ± 12.5 mg/dL
plasma total cholesterol ([2]; 0.1 mg/kg oral, Day 28): 135.1 ± 15.4 mg/dL
body weight ([2]; 0.1 mg/kg oral, Day 37): 35.6 ± 3.9 g
epididymal fat mass ([2]; 0.1 mg/kg oral): 0.47 ± 0.10 g
gastrocnemius muscle weight (g/100 g body weight) ([2]; 0.1 mg/kg oral): 0.468 ± 0.033 g/100 g body weight
hepatocyte weight ([2]; 0.1 mg/kg oral): 1.37 ± 0.24 g
mesenteric fat mass ([2]; 0.1 mg/kg oral): 0.30 ± 0.08 g
body weight (in words) ([2]; obese mouse model fed with a high-fat diet): clear body weight decreasing action
activity at 1 µM (C2C12 cell): 247%
expression of MyoD (in words) (MyoD; C2C12 cells cultured in a differentiation medium): increased
MyoD/36B4 expression level (MyoD; DM (differentiation medium)): 1.59 ± 0.20
MyoD/36B4 expression level (MyoD; GM (growth medium)): 1.26 ± 0.10
